Consider 8 compounds from patent US8168650B2, “Therapeutic uses of bicyclic ligands of sigma 2 receptor” (priority 2006, dated 2012).

In data set [1] the test system is EMT-6 cells. Particulars: EMT-6, 1 h pre-incubation with inhibitor (100 μM); for effect on cell death / cytotoxic effects induced by the three σ2 selective ligands: MTS assay. A general note: Tetrazolium assays rely on reduction of a dye to a coloured formazan, in cell work by metabolically active cells.
Experimental: To determine the effect of blocking the caspase-dependent apoptotic pathway on sigma ligand-induced cell killing, the caspase inhibitors, Z-VAD-FMK or Z-DEVD-FMK (Calbiochem, San Diego, Calif.) were added to the culture medium 1 hour before the sigma ligands, and the MTS assay performed as described above.
The test system of data set [2] is Panc-02 cells. As to the kind of experiment: Caspase inhibitors on sigma-2 receptor ligand-induced apoptosis in Panc-02 cells. Type of data set: cell-based, mouse. The procedure: (§1) Tumor cells were seeded at a density of approximately 0.2×10^6 cells per well in 12-well plates in 1.0 ml culture medium. Cells were split and pre-incubated at 37° C. in humidified 5% CO2 for more than 24 hours (Panc-02) and 48 hours (CFPAC-1, AsPC-1, Panc-1) to insure uniform growth conditions. Compounds were dissolved in DMSO and added to the culture medium at the concentrations indicated. The final concentration of DMSO in the cell culture medium was less than 1%. The cells were then incubated for 24 hours at 37° C. in humidified 5% CO2. The extent of apoptosis was subsequently measured as previously reported (Guelen, L., et al., Oncogene 2004, 23: 1153-1165). Briefly, staining was performed on trypsin-EDTA treated cultures that had been fixed with 1% paraformaldehyde and 90% methanol. Cell pellets were resuspended in TUNEL reagent (APO-BRDU kit, San Diego, Calif.) or cleaved caspase-3 antibody (Cell Signaling Technology, Inc. Boston, Mass.) and incubated overnight at room temperature (TUNEL) or 4° C. (cleaved caspase-3). After washing, cells were resuspended in fluorescein antibody or 7-AAD buffer and incubated for 1 hour at room temperature. Cell-associated fluorescence was determined using a flow cytometry (FACScan, BD Biosciences) and analyzed with CellQuest software (BD Biosciences).
(§2) At the highest dose tested (10 μM), all sigma-2 receptor ligands induced an additional 10-20% of the cells to undergo apoptosis (FIG. 15A). […] The pan-caspase inhibitor (Z-VAD-fmk) and caspase-3/7 inhibitor (DEVD-CHO) prevented sigma-2 receptor ligand-induced apoptosis in panc-02 cells, while the caspase-1 inhibitor (YVAD-CHO) had no effect (FIG. 15B).

The subject of data set [3] is EMT-6 cells. As to the kind of experiment: Colony formation assay on Doxorubicin-treated EMT-6 cells. Type of data set: cell-based, mouse. The procedure:
This Example illustrates colony formation assay on Doxorubicin (“Dox”)-treated EMT-6 cells in the presence or absence of 2 μM WC-II-26. The structures of the sigma ligands used in this and subsequent examples are illustrated in FIG. 5 and FIG. 6.

The subject of data set [4] is EMT-6 cells. The experiment in a line: TUNEL assay, enhancement of Dox-induced apoptosis in EMT-6 cells. The data set is classed as cell-based, mouse. Particulars: EMT-6, Dox 30 nM alone. Here is the method: In these experiments, a TUNEL assay was used to detect apoptotic cells with damaged DNA strands. […] Furthermore, EMT-6 cells treated with Dox at 30 nM yielded only 10% TUNEL-positive cells. However, when EMT-6 cells were treated with 2 μM WC-II-26 plus 30 nM Dox, the percentage of TUNEL-positive cells rose to 43.3%.

For data set [5], the target named is T1, sigma-2 receptors (Mus musculus, UniProt Q8VD00).
T1 construct: Membrane homogenates were prepared from ˜400 mg Panc-02 mouse tumor allografts; from tissue; host or cells: Panc-02 mouse pancreatic tumor allografts (membrane homogenates)
T1 sequence (Q8VD00 1-176): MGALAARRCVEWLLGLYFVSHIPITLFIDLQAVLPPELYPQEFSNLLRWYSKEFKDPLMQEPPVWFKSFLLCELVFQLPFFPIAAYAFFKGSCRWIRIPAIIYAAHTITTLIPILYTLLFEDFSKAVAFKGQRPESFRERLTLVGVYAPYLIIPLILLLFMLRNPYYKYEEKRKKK
The experiment in a line: Saturation binding (Scatchard analysis) of [3H]RHM-1 in Panc-02 tumor allograft membrane homogenates. The procedure: Membrane homogenates were prepared from ˜400 mg Panc-02 mouse tumor allografts, which were removed from tumor bearing mice and frozen on dry ice immediately and stored at −80° C. until used. Before homogenization, the tumor allografts were allowed to thaw slowly on ice. Tissue homogenization was carried out at 4° C. using a Potter-Elvehjem tissue grinder at a concentration of 1 g of tissue/ml of 50 mM Tris-HCl at pH 8.0. The crude membrane homogenate was then transferred to a 50 ml centrifuge tube and resuspended to a concentration of 200 mg of tissue/ml of 50 mM Tris-HCl. Additional homogenization was accomplished using an Ultra-Turrax T8 polython homogenizer (IKA Works, Inc, Wilmington, N.C.). The final homogenate was then centrifuged for 10 min at 1000 g, the pellet discarded and the supernatant mixed by vortexing and stored at −80° C. until used. The protein concentration of the suspension was determined (DC protein assay, Bio-Rad, Hercules, Calif.) and averaged ˜10 mg of protein/ml of stock solution. […] The concentrations of the radioligand ranged from 0.1-18 nM. […] Each filter was washed with 200 μl of ice-cold wash buffer for a total of three washes. […] The equilibrium dissociation constant (Kd) and maximum number of binding sites (BBmax) were determined by a linear regression analysis of the transformed data using the method of Scatchard.
Data from saturation radioligand binding studies was transformed to determine the Hill coefficient, nH, defined as: […]
In these experiments, direct saturation binding studies were carried out using [^3H]RHM-1 with membrane homogenates of PancO2 tumor allografts.

Data set [6] deals with pancreatic cancer cell lines (Panc-02, CFPAC-1, AsPC-1, Panc-1). As to the kind of experiment: Apoptosis in pancreas cancer cell lines (TUNEL / cleaved caspase-3, flow cytometry). Type of data set: cell-based, mouse, human. The procedure: as §1, §2
On the technique in general: In flow cytometry, cells or beads pass a laser one at a time.

The test system of data set [7] is CFPAC-1. The experiment in a line: Apoptosis in CFPAC-1 cells. Type of data set: cell-based, human. Conditions: CFPAC-1, highest dose tested. Here is the method: as §1, with “Biosciences). […]” for “Biosciences).”
The mark [8] stands for this setting: membrane homogenates of Panc-02 tumor allografts.

Structures can show the parent of a compound that is named as a salt. Where two headings read alike, the source gives them in different places. Peptide text beside a SMILES is read from it. * marks the point of attachment. Cbz = O=C(OCc1ccccc1)*; CH2F = FC*

As for `COC(=O)C[C@H](NC(=O)[C@H](C)NC(=O)[C@@H](NC(=O)OCc1ccccc1)C(C)C)C(=O)CF` [Z-VAD-FMK] (Cbz-Val-Ala-Asp(OMe)-CH2F), in data set [1], the “effect on DNA fragmentation after treatment with the three σ2 selective ligands” value is “partially blocked” and the “effect on cell death / cytotoxic effects induced by the three σ2 selective ligands” value is “partially, but not completely, blocked”. Further, the “effect on cell death / cytotoxic effects induced by the three σ2 selective ligands” value in data set [1] (listed as Z-VADFMK) is on record as “partially blocked”. For the same compound, in data set [2], the “effect on sigma-2 receptor ligand-induced apoptosis” value was “prevented”.

Take `CC(=O)N[C@@H](CC(=O)O)C(=O)N[C@@H](CCC(=O)O)C(=O)N[C@H](C(=O)N[C@H](C=O)CC(=O)O)C(C)C` [DEVD-CHO]: the “effect on sigma-2 receptor ligand-induced apoptosis” value in data set [2] is given as “prevented”.

Regarding `CC(=O)N[C@@H](Cc1ccc(O)cc1)C(=O)N[C@H](C(=O)N[C@@H](C)C(=O)N[C@H](C=O)CC(=O)O)C(C)C` [YVAD-CHO], the “effect on sigma-2 receptor ligand-induced apoptosis” value in data set [2] is “no effect”.

Consider `COc1cccc2c1C(=O)c1c(O)c3c(c(O)c1C2=O)C[C@@](O)(C(=O)CO)C[C@@H]3O[C@H]1C[C@H](N)[C@H](O)[C@H](C)O1` [Dox, Doxorubicin, reference compound], for which the “number of colonies formed compared to control cells” value in data set [3] (EMT-6, 10, 20, and 30 nM of Dox alone) is on record as “not changed significantly”. The “decrease in colony forming efficiency” value in data set [3] (EMT-6, Dox 40 nM alone) is “about 25%”. The TUNEL-positive cells in data set [4] is reported as 10%.

With `COc1cc2c(cc1OC)CN(CCCCNC(=O)c1cc(C)ccc1OC)CC2` [[3H]RHM-1], in data set [5] (setting [8]), the “Bmax (maximum number of binding sites)” value is reported as 1250 fmol/mg protein and binding was characterised by a dissociation constant (Kd) of 4.88 nM. In addition, the “Hill coefficient nH (mean)” value in data set [5] (saturation binding, Panc-02 tumor allografts) is reported as “close to unity”.

`COc1ccc(C)cc1NC(=O)OC1CC2CCCC(C1)N2CCCCCCNS(=O)(=O)c1cccc2c(N(C)C)cccc12` (stereo not drawn) (as salt: oxalate) [Compound 9, N-(9-(6-(5-Dimethylamino-1-naphthalenesulfonamido))hexyl)-9-azabicyclo[3.3.1]-nonan-3α-yl-N-(2-methoxy-5-methylphenyl)carbamate oxalate]: the melting point (as a rule, the temperature, or range, at which the solid turns liquid) lay within 162 to 163 °C.

For the compound `CC(C)=CCN1CCC2(C)c3cc(O)ccc3CC1C2C` (stereo not shown) [pentazocine, reference compound], the “toxicity to pancreas cancer cell lines” value in data set [6] (all cell lines tested with the exception of CFPAC-1) is listed as “minimal toxicity”. Moreover, the increase in apoptosis in data set [7] is recorded as 8-10%.

`O=C(CCCN1CCC(O)(c2ccc(Cl)cc2)CC1)c1ccc(F)cc1` [Haloperidol, reference compound]: the “apoptosis in all pancreas cancer cell lines tested” value in data set [6] (24 hours incubation) is recorded as “dose-dependent apoptosis”.
